Results taken from patent publication US8993574B2, “Pyrrole antifungal agents” (F2G Ltd, priority 2008, dated 2015).
Converted amounts (≈) assume the structure as drawn.

Legend:
Type in all cases: cell-based
Aspergillus flavus [1] = assay: MIC, YAG medium; conditions: 24 h at 35° C, MIC banded into grades; for MIC: Aspergillus flavus, 24 h, read-out: MIC grade, A. flavus
In short: (§1)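 Spores harvested from 5-day Sabouraud agar cultures were inoculated at 1−2×10^4 cfu/mL into YAG medium (1% glucose, 1% ammonium chloride, 0.5% yeast extract) over doubling drug dilutions spanning 50-0.05 mg/L, or 0.5-0.0005 mg/L on repeat. After 24 h at 35° C, OD485 was read. MIC is the lowest concentration inhibiting growth >70% versus drug-free control, in mg/L.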

[2] = test system: Aspergillus fumigatus AF210; assay: MIC, YAG medium; conditions: 24 h at 35° C, MIC banded into grades; for MIC: Aspergillus fumigatus, read-out: MIC grade, A. fumigatus 210
In short: as §1

[3] = test system: Aspergillus fumigatus AF293; assay: MIC, YAG medium; conditions: 24 h at 35° C, MIC banded into grades; for MIC: Aspergillus fumigatus, read-out: MIC grade, A. fumigatus
In short: as §1

Aspergillus niger [4] = assay: MIC, YAG medium; conditions: 24 h at 35° C, MIC banded into grades; for MIC: Aspergillus niger, read-out: MIC grade, A. niger
In short: as §1

Aspergillus terreus AT49 [5] = assay: MIC, YAG medium; conditions: 24 h at 35° C, MIC banded into grades; for MIC: Aspergillus terreus, read-out: MIC grade, A. terreus 49
In short: as §1

Aspergillus terreus AT4 [6] = assay: MIC, YAG medium; conditions: 24 h at 35° C, MIC banded into grades; for MIC: Aspergillus terreus, read-out: MIC grade, A. terreus
In short: as §1

Aspergillus flavus [7] = assay: MIC, RPMI medium; conditions: MIC banded into grades; for MIC: Aspergillus flavus, read-out: MIC grade, A. flavus
In short: (§2)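 MIC taken as lowest drug level inhibiting growth by >80% relative to drug-free wells, read as OD at 485 nm after 24-48 h at 35° C. Organisms at 1−2×10^4 cfu/mL in RPMI (2% glucose, 0.135 M MOPS, pH 7.0) exposed to doubling dilutions spanning 50-0.05 mg/L.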

[8] = test system: Aspergillus fumigatus AF210; assay: MIC, RPMI medium; conditions: for MIC: Aspergillus fumigatus, AF210, MIC banded into grades, read-out: MIC grade, A. fumigatus 210
In short: as §2

[9] = test system: Aspergillus fumigatus AF293; assay: MIC, RPMI medium; conditions: for MIC: Aspergillus fumigatus, AF293, MIC banded into grades, read-out: MIC grade, A. fumigatus
In short: as §2

Aspergillus niger [10] = assay: MIC, RPMI medium; conditions: MIC banded into grades; for MIC: Aspergillus niger, read-out: MIC grade, A. niger
In short: as §2

Aspergillus terreus AT49 [11] = assay: MIC, RPMI medium; conditions: for MIC: Aspergillus terreus, AT49, MIC banded into grades, read-out: MIC grade, A. terreus 49
In short: as §2

Aspergillus terreus AT4 [12] = assay: MIC, RPMI medium; conditions: for MIC: Aspergillus terreus, AT4, MIC banded into grades, read-out: MIC grade, A. terreus
In short: as §2

Candida albicans = assay: MIC, RPMI medium; conditions: 24-48 h at 35° C., >80% growth inhibition, banded into grades; for MIC: Candida albicans
In short: as §2

Candida glabrata = assay: MIC, RPMI medium; conditions: 24-48 h at 35° C., >80% growth inhibition, banded into grades; for MIC: Nakaseomyces glabratus
In short: as §2

Candida krusei = assay: MIC, RPMI medium; conditions: 24-48 h at 35° C., >80% growth inhibition, banded into grades; for MIC: Pichia kudriavzevii
In short: as §2

Candida parapsilosis = assay: MIC, RPMI medium; conditions: 24-48 h at 35° C., >80% growth inhibition, banded into grades; for MIC: Lodderomyces parapsilosis
In short: as §2

Candida tropicalis = assay: MIC, RPMI medium; conditions: 24-48 h at 35° C., >80% growth inhibition, banded into grades; for MIC: Candida tropicalis
In short: as §2

Row | MIC (Aspergillus flavus [1]) | MIC [2] | MIC [3] | MIC (Aspergillus niger [4]) | MIC (Aspergillus terreus AT49 [5]) | MIC (Aspergillus terreus AT4 [6]) | MIC (Aspergillus flavus [7]) | MIC [8] | MIC [9] | MIC (Aspergillus niger [10]) | MIC (Aspergillus terreus AT49 [11]) | MIC (Aspergillus terreus AT4 [12]) | MIC (Candida albicans) | MIC (Candida glabrata) | MIC (Candida krusei) | MIC (Candida parapsilosis) | MIC (Candida tropicalis) | Structure (SMILES) | further results
1 | < 1 µg/mL | < 1 µg/mL | < 1 µg/mL | < 1 µg/mL | < 1 µg/mL | < 1 µg/mL | 1 to 10 µg/mL (≈ 2.16 to 21.6 µM) | 1 to 10 µg/mL (≈ 2.16 to 21.6 µM) | 1 to 10 µg/mL (≈ 2.16 to 21.6 µM) | < 1 µg/mL | 1 to 10 µg/mL (≈ 2.16 to 21.6 µM) | 1 to 10 µg/mL (≈ 2.16 to 21.6 µM) | < 1 µg/mL | < 1 µg/mL | < 1 µg/mL | < 1 µg/mL | < 1 µg/mL | COCCn1c(C)cc(-c2ccccc2)c1C(=O)C(=O)Nc1ccc(N2CCCCC2)cc1F [Example 114, N-(2-Fluoro-4-piperidin-1-yl-phenyl)-2-[1-(2-methoxy-ethyl)-5-methyl-3-phenyl-1H-pyrrol-2-yl]-2-oxo-acetamide] | 
2 | < 1 µg/mL | < 1 µg/mL | < 1 µg/mL | < 1 µg/mL | < 1 µg/mL | < 1 µg/mL | > 10 µg/mL | < 1 µg/mL | < 1 µg/mL | < 1 µg/mL | 1 to 10 µg/mL (≈ 1.81 to 18.1 µM) | 1 to 10 µg/mL (≈ 1.81 to 18.1 µM) | 1 to 10 µg/mL (≈ 1.81 to 18.1 µM) | < 1 µg/mL | < 1 µg/mL | < 1 µg/mL | 1 to 10 µg/mL (≈ 1.81 to 18.1 µM) | COCCn1c(C)cc(-c2ccccc2)c1C(=O)C(=O)Nc1ccc(N2CCN(c3cc(C)cc(C)n3)CC2)cc1 [Example 9, N-{4-[4-(4,6-Dimethyl-pyridin-2-yl)-piperazin-1-yl]-phenyl}-2-[1-(2-methoxy-ethyl)-5-methyl-3-phenyl-1H-pyrrol-2-yl]-2-oxo-acetamide] | 
3 | > 10 µg/mL | 1 to 10 µg/mL (≈ 1.75 to 17.5 µM) | 1 to 10 µg/mL (≈ 1.75 to 17.5 µM) | > 10 µg/mL | 1 to 10 µg/mL (≈ 1.75 to 17.5 µM) | 1 to 10 µg/mL (≈ 1.75 to 17.5 µM) | > 10 µg/mL | 1 to 10 µg/mL (≈ 1.75 to 17.5 µM) | 1 to 10 µg/mL (≈ 1.75 to 17.5 µM) | > 10 µg/mL | > 10 µg/mL | > 10 µg/mL | < 1 µg/mL | < 1 µg/mL | 1 to 10 µg/mL (≈ 1.75 to 17.5 µM) | < 1 µg/mL | < 1 µg/mL | COCCn1ccc(-c2ccc(Cl)cc2)c1C(=O)C(=O)Nc1ccc(N2CCN(c3cc(C)cc(C)n3)CC2)cc1 [Example 59, 2-[3-(4-Chloro-phenyl)-1-(2-methoxy-ethyl)-1H-pyrrol-2-yl]-N-{4-[4-(4,6-dimethyl-pyridin-2-yl)-piperazin-1-yl]-phenyl}-2-oxo-acetamide] | 
4 |  |  |  |  |  |  |  |  |  |  |  |  |  |  |  |  |  | COC(=O)Cn1ccc(CC(C)C)c1C(=O)C(=O)Nc1ccc(N2CCN(c3cc(C)cc(C)n3)CC2)cc1 [Example 89, (2-{4-[4-(4,6-Dimethyl-pyridin-2-yl)-piperazin-1-yl]-phenylaminooxalyl}-3-isobutyl-pyrrol-1-yl)-acetic acid methyl ester] | MIC grade, A. flavus (Aspergillus flavus [1]): 1 (a grade of 1 represents an MIC of greater than 10 mg/L); MIC grade, A. fumigatus 210 [2]: 3 (A grade of 3 represents an MIC of less than 1 mg/L); MIC grade, A. fumigatus [3]: 3 (A grade of 3 represents an MIC of less than 1 mg/L); MIC grade, A. niger (Aspergillus niger [4]): 2 (A grade of 2 represents an MIC of from 1 to 10 mg/L); MIC grade, A. terreus 49 (Aspergillus terreus AT49 [5]): 2 (A grade of 2 represents an MIC of from 1 to 10 mg/L); MIC grade, A. terreus (Aspergillus terreus AT4 [6]): 2 (A grade of 2 represents an MIC of from 1 to 10 mg/L); MIC grade, A. flavus (Aspergillus flavus [7]): 1 (a grade of 1 represents an MIC of greater than 10 mg/L); MIC grade, A. fumigatus 210 ([8]; MIC banded into grades): 2 (A grade of 2 represents an MIC of from 1 to 10 mg/L); MIC grade, A. fumigatus ([9]; MIC banded into grades): 2 (A grade of 2 represents an MIC of from 1 to 10 mg/L); MIC grade, A. niger (Aspergillus niger [10]): 2 (A grade of 2 represents an MIC of from 1 to 10 mg/L); MIC grade, A. terreus 49 (Aspergillus terreus AT49 [11]; MIC banded into grades): 1 (a grade of 1 represents an MIC of greater than 10 mg/L); MIC grade, A. terreus (Aspergillus terreus AT4 [12]; MIC banded into grades): 1 (a grade of 1 represents an MIC of greater than 10 mg/L); Candida MIC, C. albicans (Candida albicans): 2 (A grade of 2 represents an MIC of from 1 to 10 mg/L); Candida MIC, C. glabrata (Candida glabrata): 3 (A grade of 3 represents an MIC of less than 1 mg/L); Candida MIC, C. krusei (Candida krusei): 3 (A grade of 3 represents an MIC of less than 1 mg/L); Candida MIC, C. parapsilosis (Candida parapsilosis): 3 (A grade of 3 represents an MIC of less than 1 mg/L); Candida MIC, C. tropicalis (Candida tropicalis): 3 (A grade of 3 represents an MIC of less than 1 mg/L)
